Measured values reported in PMC10810011 (Expert opinion on drug delivery, 2023).

Assays:
pKa determination = assay type: physicochemical; details: UV metric at pH 2–12
HCT-116 cells = test: MTT cytotoxicity, 2D HCT-116; assay type: cell-based, human; details: 24 h
Opioid mu = Opioid mu (Homo sapiens, UniProt P35372); test: InVEST radioligand filter binding, Opioid mu; details: M13 20 μM, 100 = no effect
Thrombin alpha = Thrombin alpha (Homo sapiens, UniProt P00734); test: InVEST enzymatic activity, Thrombin alpha; assay type: biochemical; details: M13 20 μM, 100 = no effect
D1 dopamine = D1 dopamine (Homo sapiens, UniProt P21728); details: M13 20 μM, 100 = no effect
D3 dopamine = D3 dopamine (Homo sapiens, UniProt P35462); test: InVEST radioligand filter binding, D3 dopamine; details: M13 20 μM, 100 = no effect
5-HT3 = target: T1, 5-HT3 (Homo sapiens, UniProt P46098); test: InVEST radioligand filter binding, ion channel 5-HT3; details: M13 20 μM, 100 = no effect
T1 sequence (P46098 24-478): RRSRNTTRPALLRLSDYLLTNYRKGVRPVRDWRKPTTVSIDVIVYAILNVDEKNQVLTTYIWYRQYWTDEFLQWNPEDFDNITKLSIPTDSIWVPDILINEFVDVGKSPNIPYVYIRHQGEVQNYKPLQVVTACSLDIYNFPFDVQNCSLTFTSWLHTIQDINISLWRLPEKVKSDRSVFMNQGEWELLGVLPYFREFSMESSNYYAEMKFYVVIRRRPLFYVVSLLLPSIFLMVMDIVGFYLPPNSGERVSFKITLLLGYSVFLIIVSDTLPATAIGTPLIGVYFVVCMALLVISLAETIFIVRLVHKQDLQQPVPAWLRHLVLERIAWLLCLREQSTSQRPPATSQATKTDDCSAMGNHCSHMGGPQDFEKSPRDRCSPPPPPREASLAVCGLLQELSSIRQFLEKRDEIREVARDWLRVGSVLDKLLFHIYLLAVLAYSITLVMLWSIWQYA

histamine H1 = histamine H1 (Homo sapiens, UniProt P35367); details: M13 20 μM, 100 = no effect
Muscarinic M2 = target: T2, Muscarinic M2 (Homo sapiens, UniProt P08172); test: InVEST radioligand filter binding, Muscarinic M2; details: M13 20 μM, 100 = no effect
T2 sequence (P08172 1-466): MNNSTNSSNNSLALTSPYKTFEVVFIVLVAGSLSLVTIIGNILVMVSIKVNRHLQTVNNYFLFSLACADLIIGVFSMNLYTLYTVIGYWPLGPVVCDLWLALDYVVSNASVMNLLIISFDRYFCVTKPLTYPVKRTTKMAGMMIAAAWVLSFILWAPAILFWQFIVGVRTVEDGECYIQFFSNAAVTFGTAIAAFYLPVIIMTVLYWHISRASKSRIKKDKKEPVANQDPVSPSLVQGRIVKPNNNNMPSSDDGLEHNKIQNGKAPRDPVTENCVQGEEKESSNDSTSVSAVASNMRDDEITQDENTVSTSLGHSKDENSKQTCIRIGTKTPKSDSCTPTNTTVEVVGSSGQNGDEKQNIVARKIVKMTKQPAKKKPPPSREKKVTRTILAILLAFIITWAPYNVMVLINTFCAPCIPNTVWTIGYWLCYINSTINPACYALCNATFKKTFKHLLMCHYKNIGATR

CCK = target: T3, CCK (Homo sapiens, UniProt P32238); test: InVEST radioligand filter binding, CCK; details: CCK, M13 20 μM, 100 = no effect
T3 sequence (P32238 1-428): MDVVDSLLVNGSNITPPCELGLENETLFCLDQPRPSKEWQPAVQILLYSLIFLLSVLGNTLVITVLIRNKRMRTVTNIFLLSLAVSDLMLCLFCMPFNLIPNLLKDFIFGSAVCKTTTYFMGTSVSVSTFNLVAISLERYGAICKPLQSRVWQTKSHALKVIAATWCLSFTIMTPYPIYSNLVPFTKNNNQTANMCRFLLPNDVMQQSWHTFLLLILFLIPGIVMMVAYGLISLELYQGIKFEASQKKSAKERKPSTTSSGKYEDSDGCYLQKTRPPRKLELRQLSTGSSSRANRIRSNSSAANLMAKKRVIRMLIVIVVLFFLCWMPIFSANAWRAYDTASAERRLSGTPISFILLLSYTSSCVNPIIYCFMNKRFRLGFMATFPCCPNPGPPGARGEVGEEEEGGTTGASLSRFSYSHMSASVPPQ

AHR-activation = target: T4, AHR-activation (Homo sapiens, UniProt P35869); test: InVEST fluorescence polarization binding/cell-based activity, AHR-activation; details: M13 20 μM, 100 = no effect
T4 sequence (P35869 11-848): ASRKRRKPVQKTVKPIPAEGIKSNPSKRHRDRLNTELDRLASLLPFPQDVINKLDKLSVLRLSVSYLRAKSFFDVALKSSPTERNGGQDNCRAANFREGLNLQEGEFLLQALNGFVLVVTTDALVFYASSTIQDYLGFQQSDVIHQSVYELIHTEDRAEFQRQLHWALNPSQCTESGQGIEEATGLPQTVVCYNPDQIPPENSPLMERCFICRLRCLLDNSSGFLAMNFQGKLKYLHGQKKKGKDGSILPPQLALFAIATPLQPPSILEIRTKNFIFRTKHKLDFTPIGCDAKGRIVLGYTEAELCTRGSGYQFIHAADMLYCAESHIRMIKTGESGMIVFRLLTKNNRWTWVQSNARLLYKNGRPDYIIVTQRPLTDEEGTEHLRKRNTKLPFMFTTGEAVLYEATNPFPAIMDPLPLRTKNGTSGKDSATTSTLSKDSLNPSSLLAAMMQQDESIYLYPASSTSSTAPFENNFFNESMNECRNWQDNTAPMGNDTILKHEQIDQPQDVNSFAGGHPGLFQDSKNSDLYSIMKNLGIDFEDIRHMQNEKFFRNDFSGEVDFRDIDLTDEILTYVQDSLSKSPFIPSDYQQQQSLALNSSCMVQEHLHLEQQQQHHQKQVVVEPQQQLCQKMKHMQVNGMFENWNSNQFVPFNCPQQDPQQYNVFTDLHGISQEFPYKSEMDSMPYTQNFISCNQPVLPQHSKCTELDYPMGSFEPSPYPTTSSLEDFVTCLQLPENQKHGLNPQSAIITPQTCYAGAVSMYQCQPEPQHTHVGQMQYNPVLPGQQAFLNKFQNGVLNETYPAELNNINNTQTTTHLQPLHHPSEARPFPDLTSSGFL

A1 adenosine = A1 adenosine (Homo sapiens, UniProt P30542); test: InVEST radioligand filter binding, A1 adenosine; details: M13 20 μM, 100 = no effect
A1 adenosine, sequence (P30542 whole entry): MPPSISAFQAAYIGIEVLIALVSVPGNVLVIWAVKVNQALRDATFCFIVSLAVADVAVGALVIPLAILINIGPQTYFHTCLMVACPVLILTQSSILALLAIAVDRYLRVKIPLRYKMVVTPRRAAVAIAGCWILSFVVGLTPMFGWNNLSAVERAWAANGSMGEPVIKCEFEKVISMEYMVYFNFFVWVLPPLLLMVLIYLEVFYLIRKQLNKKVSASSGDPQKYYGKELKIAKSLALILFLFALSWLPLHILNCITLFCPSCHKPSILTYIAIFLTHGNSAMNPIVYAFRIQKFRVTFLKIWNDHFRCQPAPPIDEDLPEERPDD

Opioid mu, sequence (P35372 whole entry): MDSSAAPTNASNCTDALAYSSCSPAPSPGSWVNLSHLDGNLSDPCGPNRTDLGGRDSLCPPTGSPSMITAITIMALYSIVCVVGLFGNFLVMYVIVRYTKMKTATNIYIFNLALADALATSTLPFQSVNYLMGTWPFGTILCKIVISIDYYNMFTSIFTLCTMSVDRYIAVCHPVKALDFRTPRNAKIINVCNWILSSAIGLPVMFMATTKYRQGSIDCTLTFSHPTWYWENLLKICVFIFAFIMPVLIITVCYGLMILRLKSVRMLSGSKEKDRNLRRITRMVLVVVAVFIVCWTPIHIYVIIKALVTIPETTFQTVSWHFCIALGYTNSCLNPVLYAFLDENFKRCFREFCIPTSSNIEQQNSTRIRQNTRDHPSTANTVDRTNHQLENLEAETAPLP
D1 dopamine, sequence (P21728 whole entry): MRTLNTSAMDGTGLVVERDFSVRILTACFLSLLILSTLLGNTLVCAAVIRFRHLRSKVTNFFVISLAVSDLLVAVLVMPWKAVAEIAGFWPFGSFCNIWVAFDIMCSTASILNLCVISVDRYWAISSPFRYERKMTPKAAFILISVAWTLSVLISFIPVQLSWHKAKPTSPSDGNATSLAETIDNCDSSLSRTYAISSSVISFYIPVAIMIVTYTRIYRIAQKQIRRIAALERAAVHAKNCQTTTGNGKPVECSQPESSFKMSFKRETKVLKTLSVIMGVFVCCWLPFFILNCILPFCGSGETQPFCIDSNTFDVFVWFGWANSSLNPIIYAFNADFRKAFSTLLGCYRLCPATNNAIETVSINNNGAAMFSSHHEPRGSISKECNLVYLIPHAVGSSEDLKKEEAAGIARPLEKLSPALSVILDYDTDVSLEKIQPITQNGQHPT
histamine H1, sequence (P35367 whole entry): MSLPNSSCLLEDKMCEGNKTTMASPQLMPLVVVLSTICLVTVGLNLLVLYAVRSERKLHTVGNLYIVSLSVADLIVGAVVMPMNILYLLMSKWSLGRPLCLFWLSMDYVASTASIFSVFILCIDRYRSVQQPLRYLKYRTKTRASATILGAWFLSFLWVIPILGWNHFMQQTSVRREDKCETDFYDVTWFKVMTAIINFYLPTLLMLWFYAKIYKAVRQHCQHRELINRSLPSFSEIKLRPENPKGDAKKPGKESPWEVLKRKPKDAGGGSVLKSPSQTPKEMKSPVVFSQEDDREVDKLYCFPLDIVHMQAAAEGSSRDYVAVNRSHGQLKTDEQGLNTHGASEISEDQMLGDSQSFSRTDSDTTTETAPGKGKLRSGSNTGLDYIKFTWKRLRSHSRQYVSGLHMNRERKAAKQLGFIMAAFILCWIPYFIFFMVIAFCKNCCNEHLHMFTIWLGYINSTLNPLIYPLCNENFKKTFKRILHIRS
D3 dopamine, sequence (P35462 whole entry): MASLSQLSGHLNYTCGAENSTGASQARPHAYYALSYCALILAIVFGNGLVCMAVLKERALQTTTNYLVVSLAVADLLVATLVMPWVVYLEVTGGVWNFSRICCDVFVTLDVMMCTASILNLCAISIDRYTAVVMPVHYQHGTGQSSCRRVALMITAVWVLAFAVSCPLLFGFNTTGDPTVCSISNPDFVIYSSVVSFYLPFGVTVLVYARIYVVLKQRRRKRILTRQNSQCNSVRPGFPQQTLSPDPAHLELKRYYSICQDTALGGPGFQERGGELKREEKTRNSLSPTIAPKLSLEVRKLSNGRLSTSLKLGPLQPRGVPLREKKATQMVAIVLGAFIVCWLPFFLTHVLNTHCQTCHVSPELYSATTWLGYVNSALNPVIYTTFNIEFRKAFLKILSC

## CCCCCC(CC(=O)CCc1ccc(O)c(OC)c1)SC[C@H](NC(=O)CC[C@H](N)C(=O)O)C(=O)NCC(=O)O (stereo partly shown) [M13, 5-glutathione-6-shogaol]
pKa determination
  pKa1: 3.24
  pKa2: 9.12
  pKa3: 10.42
HCT-116 cells; HCT-116, MTT
  IC50: 40.1 µM
HCT-116 cells; MTT
  fold by which IC50 against HIEC-6 is higher than against HCT-116: 2.5 fold
Opioid mu; repetition 1
  % Activity Data 1: 98%
Opioid mu; repetition 2
  % Activity Data 2: 96%
Thrombin alpha; repetition 1
  % Activity Data 1: 96%
Thrombin alpha; repetition 2
  % Activity Data 2: 97%
D1 dopamine; repetition 1
  % Activity Data 1: 100%
D1 dopamine; repetition 2
  % Activity Data 2: 116%
D3 dopamine; repetition 1
  % Activity Data 1: 96%
D3 dopamine; repetition 2
  % Activity Data 2: 100%
5-HT3; repetition 1
  % Activity Data 1: 98%
5-HT3; repetition 2
  % Activity Data 2: 100%
Histamine H1; repetition 1
  % Activity Data 1: 102%
Histamine H1; repetition 2
  % Activity Data 2: 99%
Muscarinic M2; repetition 1
  % Activity Data 1: 93%
Muscarinic M2; repetition 2
  % Activity Data 2: 115%
CCK; repetition 1
  % Activity Data 1: 94%
CCK; repetition 2
  % Activity Data 2: 92%
AHR-activation; repetition 1
  % Activity Data 1: 100%
AHR-activation; repetition 2
  % Activity Data 2: 101%
A1 adenosine; repetition 1
  % Activity Data 1: 85%
A1 adenosine; repetition 2
  % Activity Data 2: 87%
